Assay results from paper PMC9916658, “Design and Synthesis of New Quinazolin-4-one Derivatives with Negative mGlu7 Receptor Modulation Activity and Antipsychotic-Like Properties” (International Journal of Molecular Sciences, 2023).

Legend:
[1] = tested on: animal models of schizophrenia; settings: cited from earlier work
[2] = tested on: MK-801-induced disruptions of social interactions in mice; assay: Social interaction test (MK-801-induced deficits); type: in vivo; settings: all tested doses
Description: The method was adapted from de Moura Linck et al., 2008 [57], and Woźniak et al., 2016 [58]. After the 2-day habituation trial (10 min/day), a pair of mice was placed in the open field for 5 min. The social interactions between the two mice were determined based on the total time spent participating in social behavior, such as genital investigation, sniffing, chasing, and fighting each other. The total number of social episodes was also measured. The test was video-recorded and viewed by a trained observer.

[3] = tested on: DOI-induced head twitches in mice; assay: DOI-induced head twitch test; type: in vivo
Description: The experiments were performed according to the procedure described in our previous studies. Briefly, to habituate mice to the experimental environment, each animal was transferred to a 12 cm (diameter) × 20 cm (height) glass cage lined with sawdust 30 min before treatment. Test compounds were administered intraperitoneally (i.p.) at doses of 2.5, 5, and 10 mg/kg body weight 60 min before the test was performed. The head twitch response (HTR) in mice was induced using DOI (2.5 mg/kg, i.p.). Immediately after treatment, the number of head twitches was counted during a 20 min session.

[4] = tested on: MK-801-induced hyperactivity in mice; assay: MK-801-induced hyperactivity; type: in vivo; settings: mice, 2.5, 5, or 10 mg/kg
Description: The locomotor activity was recorded individually for each animal in locomotor activity cages with modifications. […] After 30 min, all of the mice were injected i.p. with MK-801 at 0.35 mg/kg and once again placed in the same cage. From then on, the ambulation scores were counted for 60 min. All of the groups were compared with the MK-801 control group. The experiment also included a control group treated with NaCl only.

SMILES: CCc1nc2c(o1)CC(c1ccc(C)cc1C)CC2=O (stereo not shown) [ADX71743, reference compound]
- DOI-induced head twitches [1]: active
- MK-801-induced disruptions in social interaction [1]: active
- cognitive impairment in novel object recognition [1]: active
- prepulse inhibition (PPI) [1]: active
- activity in animal models of schizophrenia ([1]; mGlu7 NAMs): antipsychotic activity

SMILES: COc1cccc(-c2ccc3nc(-c4ccccc4Cl)n(C)c(=O)c3c2)c1OC [ALX-171, 2-(2-chlorophenyl)-6-(2,3-dimethoxyphenyl)-3-methylquinazolin-4(3H)-one]
- MK-801-induced disruption in the interaction time [2]: reversed
- MK-801-induced disruption in the number of episodes [2]: reversed
- DOI-induced head twitches in mGlu7 knockout (KO) mice ([3]; mGlu7 KO mice): had no further effect
- number of DOI-induced head shakes ([3]; mice, 2.5, 5, and 10 mg/kg i.p., vs control group): significantly attenuated
- MK-801-induced increase in locomotor activity [4]: not able to reverse
